Assays:
HepG2 cells = assay: WST-1 metabolic activity (cytotoxicity) in HepG2 cells; type: cell-based, human; details: HepG2, 250 μM (highest concentration), 4 hr
Protocol: (§1) HepG2 and H‐4‐II‐E cells were differentiated for 24 hr. HepaRG cells were directly seeded in precoated 96‐well microtiter plates and were incubated in William's medium with general purpose supplements according to manufacturer's manual until adherence. All cells were treated with Ze 339 (up to 100 μg/ml) or petasin, isopetasin, neopetasin, petasol, isopetasol, petasin mixture, fatty acid mixture, and reconstituted extracts (up to 250 μM) for 4 hr.
(§2) In the three cell lines, cytotoxicity was defined as a decrease in metabolic activity of ≥20% in the WST‐1 assay. At the end of the experiment, 10 μl WST‐1 reagent was added to each well. Plates were then incubated for 2 hr to allow for the reduction of WST‐1 reagent. Absorbance was measured using a microplate absorbance reader (Infinite M 200, Tecan Trading Ltd., Switzerland) at 450 nm, reference wavelength of 620 nm. Due to some matrix effect, the lowest concentration (0.02 μg/ml for Ze 339 and 3.9 μM for single constituents and mixtures) of each substance tested was defined as 100% metabolic activity. Results were expressed as percentage of the control metabolic activity, and data were presented as mean values ± SEM (n = 3–6).
(§3) Concentration‐response analysis was done using the sigmoidal Hill equation: E(t) = E0 − Emax × C(t)^N/(IC50 ^N + C(t)^N), where E is the effect at time t, E0 the effect at baseline (time = 0), IC50 the concentration yielding 50% of the maximal effect (Emax), and N denotes the sigmoidicity coefficient (Origin 2017 Software). For statistical analysis, analysis of variance with Dunnett's multicomparison test was used to correct for multiplicity of testing (IBM SPSS Statistics software, version 25, IBM Corp., USA). The level of significance was ^* p < .05, ^** p < .01 and ^*** p < .001; NS = no significance.

[1] = Incubation without S9 fraction (solvent or cofactors only, negative controls); type: in vitro ADME; details: 20 μM, 60 min, data not shown; for metabolism with cofactors of S9 fraction only (negative control): cofactor only; for metabolism with solvent (negative control): solvent only
Protocol: (§4) The assay was carried out in triplicate in 1.5 ml glass vials with a final concentration of 20 μM of petasin, isopetasin, and neopetasin. The incubation was performed in a 37°C warm water bath. S9 fractions were thawed slowly on ice. Four different approaches were pursued by testing: (a) petasin, neopetasin, and isopetasin before (0 min) and after 60 min incubations with S9 fraction; (b) petasin, neopetasin, and isopetasin without S9 fraction after 60 min incubation; (c) vehicle as negative controls; and (d) cofactors of S9 fraction after 60‐min incubation.
A mixture of NADPH regeneration systems A (20‐fold) and B (100‐fold), phosphate buffer, and H2O was added, preincubated at 37°C, and shaken gently for 5 min. Afterwards, the recommended amount between 10 and 40 pmol/ml of enzyme or enzyme mixture was added according to manufacturer's instruction and incubated for further 60 min at 37°C and gently shaken. Afterwards, the reactions were stopped by addition of acetonitrile (400 μl). For the control sample, acetonitrile was added at 0 min incubation. The samples were centrifuged for 3 min at 10,000 × g. The supernatant was transferred to high‐performance liquid chromatography vials and analyzed by ultra‐performance liquid chromatography mass spectrometry (UPLC/MS). The UPLC analysis was performed with an UPLC Acquity H Class from Waters (Waters Corporation, Switzerland) including a quaternary high‐pressure gradient pump, an automatic sample injector, and a column thermostat. Chromatographic separation was achieved on an Acquity BEH C18, […], 50 × 2.1 mm column (Waters, Switzerland). The mobile phase consisted of 0.1% formic acid (A) and acetonitrile (B). The initial gradient condition was 10% (B) followed by a step to 90% (B) until 6.0 min. The column temperature was adjusted to 40°C. The flow rate was 0.5 ml/min and the injection volume 5 μl. The mass spectrometry was performed in positive electrospray mode using an ACQUITY QDa mass detector (Waters Corporation, Switzerland). The single ion recording was set to 317.2 Da.

CYP3A4 (human) = target: T1, CYP3A4 (human) (Homo sapiens, UniProt P08684); assay: Metabolism by isolated human CYP3A4; type: in vitro ADME; details: petasins 20 μM, 60 min
T1 construct: purchased BD Gentest (Switzerland); host or cells: baculovirus expression system
Description: (§5) The metabolism of petasin, isopetasin, and neopetasin was investigated using three different S9 fractions originating from three different species (isolated from rat, dog, and human liver homogenates containing cytochrome P450 isoforms) and isolated cytochromes of two different species (human and rat; rat analogues of the respective human cytochromes were used). For the expression of the different cytochromes, a baculovirus expression system was used according to supplier's manual. The S9 fractions or respectively single P450 cytochromes were used to mimic the liver metabolism by in vitro incubation.
as §4
(§6) A mixture of NADPH regeneration systems A (20‐fold) and B (100‐fold), phosphate buffer, and H2O was added, preincubated at 37°C, and shaken gently for 5 min. Afterwards, the recommended amount between 10 and 40 pmol/ml of enzyme or enzyme mixture was added according to manufacturer's instruction and incubated for further 60 min at 37°C and gently shaken. Afterwards, the reactions were stopped by addition of acetonitrile (400 μl). For the control sample, acetonitrile was added at 0 min incubation. The samples were centrifuged for 3 min at 10,000 × g. The supernatant was transferred to high‐performance liquid chromatography vials and analyzed by ultra‐performance liquid chromatography mass spectrometry (UPLC/MS). The UPLC analysis was performed with an UPLC Acquity H Class from Waters (Waters Corporation, Switzerland) including a quaternary high‐pressure gradient pump, an automatic sample injector, and a column thermostat. […]

CYP2D2 (rats) = target: T2, CYP2D2 (rats) (Rattus norvegicus, UniProt P10634); assay: Metabolism by isolated rat CYP2D2; type: in vitro ADME; details: petasins 20 μM, 60 min
T2 construct: purchased BD Gentest (Switzerland); host or cells: baculovirus expression system
T2 sequence (P10634 1-500): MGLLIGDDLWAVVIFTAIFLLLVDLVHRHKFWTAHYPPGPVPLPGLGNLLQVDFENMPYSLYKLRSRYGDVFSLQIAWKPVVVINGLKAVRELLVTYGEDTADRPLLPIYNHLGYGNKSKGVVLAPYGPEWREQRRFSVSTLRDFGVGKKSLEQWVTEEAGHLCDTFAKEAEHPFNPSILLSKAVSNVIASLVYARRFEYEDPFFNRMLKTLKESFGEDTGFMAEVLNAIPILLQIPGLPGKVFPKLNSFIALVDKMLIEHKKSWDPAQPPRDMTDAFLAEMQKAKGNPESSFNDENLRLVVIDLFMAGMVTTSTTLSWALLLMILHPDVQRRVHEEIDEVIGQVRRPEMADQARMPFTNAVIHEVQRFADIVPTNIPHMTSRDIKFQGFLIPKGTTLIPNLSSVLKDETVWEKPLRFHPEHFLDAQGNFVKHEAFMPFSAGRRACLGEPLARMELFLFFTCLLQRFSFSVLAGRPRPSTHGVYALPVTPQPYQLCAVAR
Description: as §5, §4, §6

HepaRG cells = assay: WST-1 metabolic activity (cytotoxicity) in HepaRG cells; type: cell-based, human; details: 250 μM, 4 hr
Protocol: as §1, §2, §3

T1 sequence (P08684 whole entry): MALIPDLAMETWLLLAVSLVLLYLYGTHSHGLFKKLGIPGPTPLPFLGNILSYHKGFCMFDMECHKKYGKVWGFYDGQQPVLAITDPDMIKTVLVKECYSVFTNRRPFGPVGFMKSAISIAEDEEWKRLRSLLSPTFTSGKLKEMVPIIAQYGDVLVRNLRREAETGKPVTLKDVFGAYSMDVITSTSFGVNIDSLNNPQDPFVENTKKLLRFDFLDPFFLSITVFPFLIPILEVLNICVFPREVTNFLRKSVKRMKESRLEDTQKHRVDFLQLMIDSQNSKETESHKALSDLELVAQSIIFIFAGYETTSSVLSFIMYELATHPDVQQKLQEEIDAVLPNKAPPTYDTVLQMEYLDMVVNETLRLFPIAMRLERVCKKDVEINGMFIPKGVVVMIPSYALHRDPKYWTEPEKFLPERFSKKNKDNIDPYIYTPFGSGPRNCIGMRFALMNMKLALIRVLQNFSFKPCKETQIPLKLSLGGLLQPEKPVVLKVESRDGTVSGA

metabolism with cofactors of S9 fraction only (negative control) [1] [%]	metabolism with solvent (negative control) [1] [%]	extent of metabolism by CYP3A4 (human) (CYP3A4 (human)) [%]	extent of metabolism by CYP2D2 (rat) (CYP2D2 (rats)) [%]	SMILES	metabolic activity compared with the reference concentration (3.9 μM) (HepG2 cells) [%]	metabolic activity (HepaRG cells) [%]
< 1	< 1	87	7	C/C=C(/C)C(=O)O[C@@H]1CCC2=CC(=O)C(=C(C)C)C[C@]2(C)[C@H]1C [isopetasin]	65.6	73
10	< 1	34	37	C=C(C)[C@@H]1C[C@@]2(C)C(=CC1=O)CC[C@@H](OC(=O)/C(C)=C\C)[C@@H]2C [petasin]	60.9	37.7
< 1	< 1	86	36	C=C(C)[C@H]1C[C@@]2(C)C(=CC1=O)CC[C@@H](OC(=O)/C(C)=C\C)[C@@H]2C [neopetasin]	66.8	28.9
